The values below come from US9290478B2, “Substituted quinoxalines as FGFR kinase inhibitors” (ASTEX THERAPEUTICS LTD, priority 2010, dated 2016).

Test [1] has as its target FGFR4 (h) (Homo sapiens, UniProt P22455). The test is described as follows: FGFR4 (enzymatic assay), TR-FRET. Format: biochemical. The conditions noted are these: 5 μM ATP; read-out: FGFR4 pIC50 (converted). The procedure:
(§1) In a final reaction volume of 30 μL, FGFR4 (h) (60 ng/ml) was incubated with 50 mM HEPES pH 7.5, 6 mM MnCl2, 1 mM DTT, 0.1 mM Na3VO4, 0.01% Triton-X-100, 500 nM Btn-Flt3 and 5 μM ATP in the presence of compound (1% DMSO final). After incubation for 60 minutes at room temperature the reaction was stopped with 2.27 nM EU-anti P-Tyr, 7 mM EDTA, 31.25 nM SA-XL-665 and 0.02% BSA which was present for 60 minutes at room temperature. Time-Resolved Fluorescence Resonance Energy Transfer (TR-FRET) signal (ex340 nm. Em 620 nm, em 655 nm) was measured afterwards and results are expressed in RFU (Relative Fluorescence Units). In this assay, the inhibitory effect of different compound concentrations (range 10 μM to 0.1 nM) was determined and used to calculate an IC50 (M) and pIC50 (−log IC50) value.

Test [2] has as its target FGFR3 (h) (Homo sapiens, UniProt P22607). The test is described as follows: FGFR3 (enzymatic assay), TR-FRET. It is filed as biochemical. The conditions noted are these: 25 μM ATP; read-out: FGFR3 pIC50 (converted). The procedure:
as §1, with “μL, FGFR3” for “μL, FGFR4”, “(h) (40” for “(h) (60”, “and 25” for “and 5”

The target of test [3] is KDR (h) (VEGFR2) (Homo sapiens, UniProt P35968). The test is described as follows: KDR (VEGFR2) (enzymatic assay), TR-FRET. Format: biochemical. To be noted: 3 μM ATP; read-out: VEGFR2 (KDR) pIC50 (converted). The method, then: KDR (VEGFR2) (Enzymatic Assay)
KDR (h) (VEGFR2), sequence (P35968 20-1356): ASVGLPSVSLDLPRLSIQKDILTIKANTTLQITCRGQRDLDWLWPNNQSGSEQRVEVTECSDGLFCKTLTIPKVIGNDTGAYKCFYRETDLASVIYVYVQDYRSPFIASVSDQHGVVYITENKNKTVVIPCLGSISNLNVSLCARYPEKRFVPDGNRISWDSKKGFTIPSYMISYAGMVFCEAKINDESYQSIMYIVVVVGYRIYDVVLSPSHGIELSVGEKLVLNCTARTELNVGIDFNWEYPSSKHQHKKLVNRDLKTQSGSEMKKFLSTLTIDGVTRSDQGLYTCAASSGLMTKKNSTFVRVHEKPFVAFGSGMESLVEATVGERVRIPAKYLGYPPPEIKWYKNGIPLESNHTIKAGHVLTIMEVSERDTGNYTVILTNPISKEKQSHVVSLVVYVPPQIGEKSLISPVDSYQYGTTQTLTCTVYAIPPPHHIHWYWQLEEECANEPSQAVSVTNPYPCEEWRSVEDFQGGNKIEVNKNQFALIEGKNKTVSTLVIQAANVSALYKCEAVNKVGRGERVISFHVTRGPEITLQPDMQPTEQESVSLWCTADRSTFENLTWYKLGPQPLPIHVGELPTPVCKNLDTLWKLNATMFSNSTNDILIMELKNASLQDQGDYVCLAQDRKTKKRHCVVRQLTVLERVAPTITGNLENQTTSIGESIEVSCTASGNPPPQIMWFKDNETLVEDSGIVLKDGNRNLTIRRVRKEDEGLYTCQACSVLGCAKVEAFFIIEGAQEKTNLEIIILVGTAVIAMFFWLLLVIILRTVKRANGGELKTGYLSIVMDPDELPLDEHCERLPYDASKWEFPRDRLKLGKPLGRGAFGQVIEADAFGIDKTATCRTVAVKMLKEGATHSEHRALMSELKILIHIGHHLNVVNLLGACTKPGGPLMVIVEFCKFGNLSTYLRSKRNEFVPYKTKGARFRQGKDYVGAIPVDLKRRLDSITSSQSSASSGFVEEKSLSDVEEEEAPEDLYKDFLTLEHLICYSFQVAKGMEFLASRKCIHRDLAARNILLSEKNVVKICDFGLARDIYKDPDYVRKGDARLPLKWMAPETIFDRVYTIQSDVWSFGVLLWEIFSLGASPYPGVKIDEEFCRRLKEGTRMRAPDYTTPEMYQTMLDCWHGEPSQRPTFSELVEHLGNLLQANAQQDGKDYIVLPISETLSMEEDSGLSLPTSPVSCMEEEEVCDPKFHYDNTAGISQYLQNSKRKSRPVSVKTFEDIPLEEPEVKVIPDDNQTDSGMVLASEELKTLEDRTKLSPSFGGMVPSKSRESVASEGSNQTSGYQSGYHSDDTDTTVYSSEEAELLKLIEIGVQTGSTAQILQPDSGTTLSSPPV
as §1, with “30 μL, KDR (h) (150” for “30 μL, FGFR4 (h) (60”, “KDR (h) (150 ng/ml) was” for “FGFR4 (h) (60 ng/ml) was”, “Btn-Flt3 and 3 μM ATP” for “Btn-Flt3 and 5 μM ATP”, “incubation for 120 minutes at” for “incubation for 60 minutes at”

The subject of test [4] is Ba/F3-Flt3-transfected cells. The test can be described thus: Ba/F3-Flt3 (minus IL3 or plus IL3) cellular proliferation assay. It is filed as cell-based. To be noted: 24 h; plus 10 ng/ml murine IL3 (counterscreen); read-out: BAF3_FLT3 (PLUS IL3) pIC50 (converted). The method, then:
Ba/F3-Flt3 (Minus IL3 or Plus IL3) (Cellular Proliferation Assay)
In a 384 well plate, 100 nl of compound dilution in DMSO was sprayed before adding 50 μl cell culture medium (phenol red free RPMI-1640, 10% FBS, 2 mM L-Glutamine and 50 μg/ml Gentamycin) containing 20000 cells per well of Ba/F3-Flt3-transfected cells. Cells were put in an incubator at 37° C. and 5% CO2. After 24 hours, 10 μl of Alamar Blue solution (0.5 mM K3Fe(CN)6, 0.5 mM K4Fe(CN)6, 0.15 mM Resazurin and 100 mM Phosphate Buffer) was added to the wells, incubated for 4 hours at 37° C. and 5% CO2 before RFU's (Relative Fluorescence Units) (ex. 540 nm., em. 590 nm.) were measured in a fluororescence plate reader.
In this assay, the inhibitory effect of different compound concentrations (range 10 μM to 0.1 nM) was determined and used to calculate an IC50 (M) and pIC50 (−log IC50) value.
As a counterscreen the same experiment was performed in the presence of 10 ng/ml murine IL3.

The structures appear in SMILES notation.

FGFR3 (h), sequence (P22607 23-806): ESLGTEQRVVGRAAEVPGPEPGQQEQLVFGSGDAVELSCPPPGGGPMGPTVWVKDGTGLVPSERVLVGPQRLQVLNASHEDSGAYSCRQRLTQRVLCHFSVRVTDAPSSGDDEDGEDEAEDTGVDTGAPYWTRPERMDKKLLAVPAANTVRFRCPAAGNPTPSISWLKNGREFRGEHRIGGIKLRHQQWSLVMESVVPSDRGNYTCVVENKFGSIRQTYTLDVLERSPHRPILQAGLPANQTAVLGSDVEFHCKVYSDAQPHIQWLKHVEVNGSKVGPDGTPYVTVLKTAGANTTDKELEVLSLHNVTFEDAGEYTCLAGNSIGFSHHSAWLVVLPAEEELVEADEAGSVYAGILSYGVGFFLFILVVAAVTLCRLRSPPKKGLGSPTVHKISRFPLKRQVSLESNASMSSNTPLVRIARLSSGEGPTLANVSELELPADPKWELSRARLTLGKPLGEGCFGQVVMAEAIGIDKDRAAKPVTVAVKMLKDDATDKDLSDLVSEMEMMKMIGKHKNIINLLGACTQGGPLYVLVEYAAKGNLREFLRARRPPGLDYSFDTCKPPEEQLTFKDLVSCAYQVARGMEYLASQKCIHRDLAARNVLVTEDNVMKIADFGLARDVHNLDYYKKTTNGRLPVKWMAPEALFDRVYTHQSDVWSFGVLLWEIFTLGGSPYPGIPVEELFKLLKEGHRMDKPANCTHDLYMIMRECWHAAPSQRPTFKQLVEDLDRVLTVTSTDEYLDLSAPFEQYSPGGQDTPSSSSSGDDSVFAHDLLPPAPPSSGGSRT
FGFR4 (h), sequence (P22455 22-802): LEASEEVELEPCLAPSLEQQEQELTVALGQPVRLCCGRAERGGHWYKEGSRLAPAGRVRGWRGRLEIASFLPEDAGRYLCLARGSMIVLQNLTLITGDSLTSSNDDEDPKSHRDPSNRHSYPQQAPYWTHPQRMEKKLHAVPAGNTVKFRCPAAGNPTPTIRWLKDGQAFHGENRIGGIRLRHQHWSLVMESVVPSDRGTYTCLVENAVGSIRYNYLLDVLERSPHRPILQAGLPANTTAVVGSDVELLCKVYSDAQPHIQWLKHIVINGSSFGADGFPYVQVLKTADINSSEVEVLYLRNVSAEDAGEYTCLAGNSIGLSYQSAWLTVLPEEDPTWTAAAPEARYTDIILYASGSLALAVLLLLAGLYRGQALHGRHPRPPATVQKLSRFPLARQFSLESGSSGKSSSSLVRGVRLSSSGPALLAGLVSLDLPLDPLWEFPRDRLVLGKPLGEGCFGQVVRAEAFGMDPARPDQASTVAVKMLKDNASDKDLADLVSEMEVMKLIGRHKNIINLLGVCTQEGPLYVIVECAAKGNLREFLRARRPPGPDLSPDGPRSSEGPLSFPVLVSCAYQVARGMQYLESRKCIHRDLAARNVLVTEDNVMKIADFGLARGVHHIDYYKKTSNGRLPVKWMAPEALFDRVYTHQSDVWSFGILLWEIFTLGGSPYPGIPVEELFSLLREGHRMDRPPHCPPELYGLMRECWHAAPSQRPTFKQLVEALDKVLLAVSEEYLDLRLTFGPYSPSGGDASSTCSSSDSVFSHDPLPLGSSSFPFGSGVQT

As to `COc1cc(OC)cc(/C(=C\CNCC(F)(F)F)c2ccc3ncc(-c4cnn(C)c4)nc3c2)c1` [Compound 14, {(Z)-3-(3,5-Dimethoxy-phenyl)-3-[3-(1-methyl-1H-pyrazol-4-yl)-quinoxalin-6-yl]-allyl}-(2,2,2-trifluoro-ethyl)-amine], the IC50 was 28.8 nM in test [1], 4.68 nM in test [2], 245 nM in test [3] and > 10000 nM in test [4].
For `COc1cc(OC)cc(/C(=C/CN(C)C)c2ccc3ncc(-c4cnn(C)c4)nc3c2)c1` [Compound 34] the same measures were > 1000 nM, 107 nM, > 1000 nM and > 10000 nM.
For `COc1cc(OC)cc(/C(=C\C#N)c2ccc3ncc(-c4cnn(C)c4)nc3c2)c1` [Compound 4] the same measures were 363 nM, 36.3 nM, 661 nM and > 10000 nM.
The matching figures for `COc1cc(OC)cc(C(CCNC(C)C)c2ccc3ncc(-c4cnn(C)c4)nc3c2)c1` (single isomer, unassigned) [Compound 19a]: 145 nM, 21.4 nM, > 1000 nM and > 10000 nM.
In the case of `COc1cc(OC)cc(/C(=C/C#N)c2ccc3ncc(-c4cnn(C)c4)nc3c2)c1` [Compound 3], the IC50 was > 10000 nM in test [1], 2190 nM in test [2], 3980 nM in test [3] and > 10000 nM in test [4].
As to `CNCC(O)(c1cc(OC)cc(OC)c1)c1ccc2ncc(-c3cnn(C)c3)nc2c1.Cl` (single isomer, unassigned) [Compound 37], the IC50 in test [1] is > 1000 nM; in test [2] it was 537 nM; in test [3] it was > 1000 nM; in test [4], > 10000 nM.
